This is an account of results in US5606037A, “Processes antineoplastic heteronaphthoquinones” (BioChem Pharma Inc., priority 1995, dated 1997).

Counter-ions that a name gives are not always drawn.

One assay has as its system MCF-7. As to the kind of experiment: In vitro cytotoxicity, MCF-7. Format: cell-based. The protocol:
(§1) The microculture tetrazolium assay was used to test in vitro cytotoxicity. This assay is described in Plumb, J. A. et al., 1989 Cancer Research 49, 4435-4440, which is herein incorporated by reference. The cytotoxicity of compounds towards tumor cells is measured in vitro using the assay. This assay method is based upon the ability of live, but not dead cells to reduce the yellow water soluble dye 3-(4,5-dimethylthiazol-2-yl)-2,5-diphenyltetrazolium bromide (MTT) to its water insoluble purple formazan product.
(§2) Cells are plated out in 100 μl of culture medium in the microtiter plates at a density of around 1,500-4,000 cells per well. The plates are incubated overnight to allow the cells to become adherent after which the test compound is added (100 μl of appropriate dilution per well). The cells are incubated with test compound at 37° C. for 48 h after which the compound is replaced with fresh medium. After a further 48 h incubation at 37° C., 50 μl of MTT solution (2 mg/ml) is added to each well. The plates are incubated in the dark for 4 h at 37° C. after which the medium is removed. The MTT formazan product is extracted from the cells by the addition of 200 μl DMSO followed by 50 μl of Sorensen's buffer. The plates are shaken briefly and the absorbance at 570 nm is read using a Molecular Devices UV max plate reader. […]

In the next assay the test system is MCF-7/ADR. Put plainly: In vitro cytotoxicity, MCF-7/ADR. Format: cell-based. As to the method:
as §1, §2

In the next assay the test system is MAT-B. Put plainly: In vitro cytotoxicity, MAT-B. Format: cell-based. The note with it: read-out: IC50 MAT-B. The protocol:
as §1, §2

The subject of a further assay is MAT-B/ADR. As to the kind of experiment: In vitro cytotoxicity, MAT-B/ADR. The note with it: read-out: IC50 MAT-B/ADR. Format: cell-based. As to the method: as §1, §2
For assay [1] the following is noted: literature; cited from earlier work.
The conditions of assay [2]: literature; cited from earlier work. The source holds these as a separate data set.
Assay [3] relates to SKOV3 (Ovarian adenocarcinoma). Put plainly: In vitro cytotoxicity, microculture tetrazolium (MTT) assay, SKOV3. Format: cell-based, Human. To be noted: for IC50: SKOV3 ovarian adenocarcinoma, 48 h with compound, further 48 h, MTT, Table 1. In outline:
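Cells plated overnight, then exposed to compound (1:3 dilutions, 100 μM to 1.7 nM, quadruplicate) 48 h at 37 °C, followed by 48 h in fresh medium. MTT 4 h, formazan extracted in DMSO/Sorensen's buffer pH 10.5, A570; four-parameter logistic fit on 0–100% survival scale.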

In assay [4] the test system is SKVLB (Ovarian; multidrug resistant). As to the kind of experiment: In vitro cytotoxicity, microculture tetrazolium (MTT) assay, SKVLB. Format: cell-based, Human. To be noted: for IC50: SKVLB multidrug resistant ovarian, 48 h with compound, further 48 h, MTT, Table 1. An outline of the steps: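 Multidrug-resistant SKVLB ovarian cells, 1,500–4,000 per well, exposed to compound (1:3 dilutions, 100 μM to 1.7 nM, quadruplicate) for 48 h at 37 °C, then 48 h in fresh medium. Viability by MTT reduction, formazan read at 570 nm; four-parameter logistic fit on a 0–100% survival scale.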

Assay [5] has as its system T47D (Ductal carcinoma of breast). Put plainly: In vitro cytotoxicity, microculture tetrazolium (MTT) assay, T47D. Format: cell-based, Human. The note with it: 48 h with compound, further 48 h, Table 1. An outline of the steps: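 Adherent cells (1,500-4,000/well) were exposed to compound in 1:3 dilutions from 100 μM to 1.7 nM, in quadruplicate, for 48 h at 37° C, followed by 48 h in fresh medium. MTT formazan was read at 570 nm, and data were fitted by four-parameter logistic on a 0-100% survival scale.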

The next assay deals with Lox (Melanoma). Put plainly: In vitro cytotoxicity, microculture tetrazolium (MTT) assay, LOX. The note with it: 48 h with compound, further 48 h, Table 1. Format: cell-based, Human. In outline:
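LOX melanoma cells, 1,500–4,000 per well, exposed to compound (1:3 dilutions, 100 μM to 1.7 nM) for 48 h at 37° C., then 48 h in fresh medium. MTT reduction read at 570 nm; four-parameter logistic fit normalized to 0–100% survival.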

For assay [6], the system named is HT 29 (Colon adenocarcinoma). Put plainly: In vitro cytotoxicity, microculture tetrazolium (MTT) assay, HT29. Format: cell-based, Human. To be noted: further 48 h, Table 1. In outline:
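HT29 cells exposed to compound (1:3 series, 100 μM to 1.7 nM, quadruplicate) for 48 h at 37 °C, then 48 h in fresh medium. Viability by MTT reduction, formazan absorbance at 570 nm; four-parameter logistic fit on 0-100% survival scale.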

Another assay concerns VLB/OV3. Put plainly: Resistance ratio of SKVLB over SKOV3 cytotoxicity (VLB/OV3). To be noted: ratio SKVLB to SKOV3; Table 1; 2880 min. Format: cell-based, Human. The protocol:
as §1
SKOV3 (Ovarian adenocarcinoma)--provided by Dr. V. Ling, Ontario Cancer Institute.
SKVLB (Ovarian; multidrug resistant)--Dr. V. Ling, Ontario Cancer Institute.
For each assay, doxorubicin is included as an inter-assay standard. This allows us to monitor the behaviour of the assay in general, and in particular, to check that the SKVLB line has maintained its resistant phenotype.
Cells are plated out in 100 μl of culture medium in the microtiter plates at a density of around 1,500-4,000 cells per well. The plates are incubated overnight to allow the cells to become adherent after which the test compound is added (100 μl of appropriate dilution per well). The cells are incubated with test compound at 37° C. for 48 h after which the compound is replaced with fresh medium. After a further 48 h incubation at 37° C., 50 μl of MTT solution (2 mg/ml) is added to each well. The plates are incubated in the dark for 4 h at 37° C. after which the medium is removed. The MTT formazan product is extracted from the cells by the addition of 200 μl DMSO followed by 50 μl of Sorensen's buffer. The plates are shaken briefly and the absorbance at 570 nm is read using a Molecular Devices UV max plate reader. Curves are fit to the MTT assay data using a four parameter logistic equation, and the data are normalized to fit a 0% to 100% survival scale.

The mark [7] stands for this setting: Homo sapiens, HT-29, 48 h with compound.

Take `COc1cccc2c1C(=O)c1c(O)c3c(c(O)c1C2=O)C[C@@](O)(C(=O)CO)C[C@@H]3O[C@H]1C[C@H](N)[C@H](O)[C@H](C)O1` [Adriamycin, reference compound]: the IC50 with MCF-7 (Homo sapiens, MCF7, read-out: IC50 MCF-7) is 0.005 µM; in the assay on MCF-7/ADR (Homo sapiens, NCI/ADR-RES, read-out: IC50 MCF-7/ADR), 6.5 µM; with MAT-B, 0.0046 µM; in the assay with MAT-B/ADR, 2.5 µM.
For the compound `CC(=O)[C@H]1CC2=C(C(=O)c3ccccc3C2=O)[C@H](OC2C[C@H](NC(=O)C(F)(F)F)[C@H](O)[C@H](C)O2)O1` (stereo partly drawn) [BCH1146, (1'S,1S,3R)-Methyl (5,10-dioxo-1-(2',3',6'-trideoxy-3'-trifluoroacetamido-4'-hydroxy-L-lyxohexopyranose)-3,4,5,10-tetrahydronaphtho [2,3-C]pyran-3-yl) ketone], the “potency relative to adriamycin” value in the assay on MCF-7 (breast cancer, MCF-7) is recorded as “less potent than adriamycin”. In addition, the “effect in sensitive versus adriamycin resistant cell line” value in the assay with MCF-7/ADR (breast cancer, MCF-7) was “nearly as effective in the sensitive and adriamycin resistant cell line”.
For the compound `CC1OC2OC(=O)OC2C2=C1C(=O)c1c(O)cccc1C2=O` (stereo not drawn) [kalafungin], the “antibacterial as well as antifungal activity” value in assay [1] is on record as “potent antibacterial as well as antifungal activity”.
For the compound `COC(=O)C1CC2=C(C(=O)c3c(cc4ccccc4c3O)C2=O)C(O[C@H]2C[C@H](NC(=O)C(F)(F)F)[C@H](O)[C@H](C)O2)O1` (stereo partly drawn) [pyranoanthraquinone (H)], in assay [2], the antitumor activity entry is recorded as “found to possess antitumor activity”.
In the case of `CC1O[C@H]2CC(=O)O[C@H]2C2=C1C(=O)c1c(O)c3c(c(O)c1C2=O)[C@H]1C[C@@H](O)[C@]3(O)[C@@H](C)O1` (stereo partly drawn) [Granaticin], the antitumor activity result in assay [2] is “reported to show antitumor activity”.
On to `CC(=O)[C@@H]1CC2=C(C(=O)c3ccccc3C2=O)[C@@H](O[C@H]2C[C@H](NC(=O)C(F)(F)F)[C@H](O)[C@H](C)O2)O1` [BCH1184, (1'S,1R,3S)-Methyl (5,10-dioxo-1-(2',3',6'-trideoxy-3'-trifluoroacetamido-4'-hydroxy-L-lyxohexopyranose)-3,4,5,10-tetrahydronaphtho [2,3-C]pyran-3-yl) ketone], for which the IC50 in [3] (Homo sapiens, SK-OV-3) is 0.005 to 0.0631 µM; in assay [4] (Homo sapiens) it was 0.0536 to 0.3 µM; in assay [5] (Homo sapiens) it was 0.284 to 0.53 µM; with Lox (Melanoma) (Homo sapiens) it was 0.0186 to 0.228 µM; in [6] (setting [7]) it was 0.0023 to 0.0161 µM. In the assay on VLB/OV3, the VLB/OV3 is 4.75-22.34.
In the case of `CO[C@@H]1O[C@@H](C(=O)Nc2ccccc2)CC2=C1C(=O)c1ccccc1C2=O` (relative stereo) [BCH2041, (1,3-trans)-anline-(1-methoxy-5,10-dioxo-3,4,5,10-tetrahydro-1H-naphtho-[2,3-c]-pyran)-3-carboxamide], the IC50 is 2.14 µM in assay [3] (Homo sapiens, SK-OV-3); 10 µM in [4] (Homo sapiens); 5.62 µM in assay [5] (Homo sapiens); 1.9 µM in the assay on Lox (Melanoma) (Homo sapiens); 1.9 µM in assay [6] (setting [7]). For the same compound, the VLB/OV3 with VLB/OV3 was determined as 5.
Take `CO[C@H]1C[C@H](O[C@@H]2O[C@@H](C(C)=O)CC3=C2C(=O)c2ccccc2C3=O)O[C@@H](C)[C@H]1OS(C)(=O)=O` [BCH2072, (1'-S, 1'S, 3-R)-methyl-(1-[2',3',4',6' tetradeoxy-3'-methoxy-4'-O-methanesulfonyl-L-lyxohexopyranose)-5,10-dioxo-3,4,5,10 tetrahydronaphtho-[2,3-c]pyran-3-yl) ketone]: the IC50 in [3] (Homo sapiens, SK-OV-3) is 0.0641 to 0.113 µM; in assay [4] (Homo sapiens), 0.315 to 0.991 µM; in assay [5] (Homo sapiens) it was 0.0236 to 0.35 µM; in the assay with Lox (Melanoma) (Homo sapiens) it was 0.102 µM; in assay [6] (setting [7]), 0.0539 to 0.101 µM. The VLB/OV3 with VLB/OV3 is 2.79-15.46.
As for `COC1OC(C(=O)NCCCN(C)C)=CC2=C1C(=O)c1ccccc1C2=O` (stereo not drawn) [BCH2051, 1-Methoxy-5,10-dioxo-5,10-dihydro-1H-naphtho[2,3-c]pyran-3-[N-(3-dimethylamino-propyl)carboxamide] hydrochloride monohydrate], the IC50 in [3] (Homo sapiens, SK-OV-3) was in the range of 0.0073 to 0.029 µM; in assay [4] (Homo sapiens), 0.0675 to 0.403 µM; in assay [5] (Homo sapiens), 0.0419 to 0.0685 µM; in the assay on Lox (Melanoma) (Homo sapiens) it was 0.0167 to 0.03 µM; in assay [6] (setting [7]) it was 0.091 to 0.134 µM. Moreover, in assay [3] (in vitro, Tables 1 and 2), the “in vitro antitumor potency” value is listed as “intense in vitro antitumor potency”. For the same compound, the “multidrug resistance / effect in multidrug resistant cell line SKVLB” value in [4] (SKVLB cell line) is “significantly avoiding multidrug resistance”. Also, the VLB/OV3 in the assay on VLB/OV3 is listed as 9.3-14.14.
For `C[C@@H]1O[C@@H](CC(=O)O)CC2=C1C(=O)c1c(O)cccc1C2=O` [nanaomycin A], the “antibacterial as well as antifungal activity” value in assay [1] is on record as “potent antibacterial as well as antifungal activity”.
For the compound `CC(=O)C1CC2=C(C(=O)c3ccccc3C2=O)C(OCC2CCCCN2)O1` (racemic) [BCH2069, Methyl-(1-O-[2'-piperidinemethanol]-5,10-dioxo-3,4,5,10-tetrahydronaphthaleno-[2,3-c]pyran-3-yl) ketone, racemic, hydrochloride], the IC50 is 0.0494 µM in assay [3] (Homo sapiens, SK-OV-3); 0.083 to 0.483 µM in assay [4] (Homo sapiens); 1.11 µM in [5] (Homo sapiens); 0.0903 µM with Lox (Melanoma) (Homo sapiens); 0.35 µM in [6] (setting [7]). In addition, in the assay on VLB/OV3, the VLB/OV3 is recorded as 2-9.78.
With “(1S, 2'S, 3R) and (1R, 2'S, 3S)-methyl-(1-[O-prolinol]-3,4,5,12-tetrahydronaphtho-[2,3-C]pyran-3-yl) ketone hydrochloride salt [BCH1658]”, the IC50 in assay [3] stood at 0.233 µM; in [4], 1.47 µM; in assay [5], 0.494 µM; in the assay on Lox (Melanoma), 0.316 µM; in assay [6] (48 h with compound) it was 0.661 µM. Moreover, in the assay on VLB/OV3, the VLB/OV3 is on record as 6.31.
